Experimental data published in the supplement of paper PMC10307832.

Tests used:
Test in all cases: relative viability (nuclei count vs DMSO), 5 days (fraction); higher = more cells survive
[1] = tested on: LC-2-ad
Method in brief: (§1)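 Lung cancer cell lines, seeded in 1536-well plates, were treated the following day by pin tool with a single drug or with five library-drug doses (not always all listed) in √10 steps on top of a fixed anchor-drug dose. Cells were fixed and nuclei stained in one step after 5 days, and nuclei were counted. Relative viability is the nuclei count for treated wells divided by that for vehicle wells, reported as medians of duplicate plates.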

[2] = tested on: EKVX
Method in brief: as §1

[3] = tested on: EMC-BAC-2
Method in brief: as §1

[4] = tested on: ABC-1
Method in brief: as §1

[5] = tested on: NCI-H1793
Method in brief: as §1

[6] = tested on: COR-L 105
Method in brief: as §1

[7] = tested on: NCI-H2126
Method in brief: as §1

[8] = tested on: NCI-H1755
Method in brief: as §1

[9] = tested on: NCI-H596
Method in brief: as §1

[10] = tested on: H3255
Method in brief: as §1

[11] = tested on: NCI-H2009
Method in brief: as §1

[12] = tested on: PC-14
Method in brief: as §1

[13] = tested on: SW 900
Method in brief: as §1

[14] = tested on: UMC-11
Method in brief: as §1

[15] = tested on: LCLC-103H
Method in brief: as §1

[16] = tested on: NCI-H2087
Method in brief: as §1

[17] = tested on: NCI-H1395
Method in brief: as §1

[18] = tested on: NCI-H1651
Method in brief: as §1

[19] = tested on: CAL-12T
Method in brief: as §1

[20] = tested on: NCI-H2023
Method in brief: as §1

[21] = tested on: NCI-H661
Method in brief: as §1

[22] = tested on: RERF-LC-KJ
Method in brief: as §1

## Oc1nc(-c2ccc(C(F)(F)F)cc2)nc2c1CSCC2 [XAV939] + Cc1nc(Nc2ncc(C(=O)Nc3c(C)cccc3Cl)s2)cc(N2CCN(CCO)CC2)n1 [Dasatinib] (partner 0.075 µM)
[1]; first compound 0.08 µM
  relative viability: 0.729
[1]; first compound 0.253 µM
  relative viability: 0.446
[1]; first compound 0.8 µM
  relative viability: 0.553
[1]; first compound 2.53 µM
  relative viability: 0.595
[2]; first compound 0.08 µM
  relative viability: 0.444
[2]; first compound 0.8 µM
  relative viability: 0.486
[2]; first compound 2.53 µM
  relative viability: 0.228
[3]; first compound 0.08 µM
  relative viability: 0.321
[3]; first compound 0.253 µM
  relative viability: 0.278
[3]; first compound 0.8 µM
  relative viability: 0.282
[3]; first compound 2.53 µM
  relative viability: 0.23
[4]; first compound 0.08 µM
  relative viability: 0.546
[4]; first compound 0.253 µM
  relative viability: 0.534
[4]; first compound 0.8 µM
  relative viability: 0.467
[4]; first compound 2.53 µM
  relative viability: 0.415
[5]; first compound 0.08 µM
  relative viability: 0.379
[5]; first compound 0.253 µM
  relative viability: 0.339
[5]; first compound 0.8 µM
  relative viability: 0.399
[5]; first compound 2.53 µM
  relative viability: 0.419
[6]; first compound 0.08 µM
  relative viability: 0.348
[6]; first compound 0.253 µM
  relative viability: 0.378
[6]; first compound 0.8 µM
  relative viability: 0.315
[6]; first compound 2.53 µM
  relative viability: 0.273
[7]; first compound 0.08 µM
  relative viability: 0.544
[7]; first compound 0.253 µM
  relative viability: 0.403
[7]; first compound 0.8 µM
  relative viability: 0.405
[7]; first compound 2.53 µM
  relative viability: 0.33
[8]; first compound 0.08 µM
  relative viability: 0.484
[8]; first compound 0.253 µM
  relative viability: 0.324
[8]; first compound 0.8 µM
  relative viability: 0.424
[8]; first compound 2.53 µM
  relative viability: 0.413
[9]; first compound 0.08 µM
  relative viability: 0.584
[9]; first compound 0.253 µM
  relative viability: 0.549
[9]; first compound 0.8 µM
  relative viability: 0.708
[9]; first compound 2.53 µM
  relative viability: 0.563
[10]; first compound 0.08 µM
  relative viability: 0.341
[10]; first compound 0.253 µM
  relative viability: 0.373
[10]; first compound 0.8 µM
  relative viability: 0.313
[10]; first compound 2.53 µM
  relative viability: 0.448
[11]; first compound 0.08 µM
  relative viability: 0.31
[11]; first compound 0.253 µM
  relative viability: 0.271
[11]; first compound 0.8 µM
  relative viability: 0.205
[11]; first compound 2.53 µM
  relative viability: 0.208
[12]; first compound 0.08 µM
  relative viability: 0.288
[12]; first compound 0.253 µM
  relative viability: 0.252
[12]; first compound 0.8 µM
  relative viability: 0.204
[12]; first compound 2.53 µM
  relative viability: 0.148
[13]; first compound 0.08 µM
  relative viability: 0.545
[13]; first compound 0.253 µM
  relative viability: 0.463
[13]; first compound 0.8 µM
  relative viability: 0.51
[13]; first compound 2.53 µM
  relative viability: 0.435
[14]; first compound 0.08 µM
  relative viability: 0.542
[14]; first compound 0.253 µM
  relative viability: 0.396
[14]; first compound 0.8 µM
  relative viability: 0.427
[14]; first compound 2.53 µM
  relative viability: 0.408
[15]; first compound 0.08 µM
  relative viability: 0.633
[15]; first compound 0.253 µM
  relative viability: 0.553
[15]; first compound 0.8 µM
  relative viability: 0.55
[15]; first compound 2.53 µM
  relative viability: 0.456
[16]; first compound 0.08 µM
  relative viability: 1.11
[16]; first compound 0.253 µM
  relative viability: 0.623
[16]; first compound 0.8 µM
  relative viability: 0.891
[16]; first compound 2.53 µM
  relative viability: 0.689
[17]; first compound 0.08 µM
  relative viability: 0.4
[17]; first compound 0.253 µM
  relative viability: 0.378
[17]; first compound 0.8 µM
  relative viability: 0.381
[17]; first compound 2.53 µM
  relative viability: 0.458
[18]; first compound 0.08 µM
  relative viability: 0.389
[18]; first compound 0.253 µM
  relative viability: 0.366
[18]; first compound 0.8 µM
  relative viability: 0.362
[18]; first compound 2.53 µM
  relative viability: 0.401
[19]; first compound 0.08 µM
  relative viability: 0.572
[19]; first compound 0.253 µM
  relative viability: 0.401
[19]; first compound 0.8 µM
  relative viability: 0.308
[19]; first compound 2.53 µM
  relative viability: 0.211
[20]; first compound 0.08 µM
  relative viability: 0.512
[20]; first compound 0.253 µM
  relative viability: 0.397
[20]; first compound 0.8 µM
  relative viability: 0.334
[20]; first compound 2.53 µM
  relative viability: 0.336
[21]; first compound 0.08 µM
  relative viability: 1
[21]; first compound 0.253 µM
  relative viability: 0.851
[21]; first compound 0.8 µM
  relative viability: 0.812
[21]; first compound 2.53 µM
  relative viability: 0.637
[22]; first compound 0.08 µM
  relative viability: 0.77
[22]; first compound 0.253 µM
  relative viability: 0.643
[22]; first compound 0.8 µM
  relative viability: 0.55
[22]; first compound 2.53 µM
  relative viability: 0.46
